From ChEMBL document CHEMBL1201862, “PubChem BioAssay data set” (2004)
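96-well plates; 48 h exposure; 5 concentrations. Endpoints by linear interpolation between flanking doses. Not reached: highest tested concentration assigned. GI50 = concentration required for 50% inhibition of growth.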 Active and inactive are the calls of the source. Rule as the data show it: active = GI50 up to about 1.1 µM and inactive = higher.

Experiments:
Assay in all cases: DTP human tumour cell line panel, 48 h
BT-549 = tested on: BT-549
CAKI-1 = tested on: CAKI-1
EKVX = tested on: EKVX
HCT-116 = tested on: HCT-116
HCT-15 = tested on: HCT-15
HL-60 = tested on: HL-60
HOP-62 = tested on: HOP-62
IGROV-1 = tested on: IGROV-1
M14 = tested on: M14
MCF7 = tested on: MCF7
MDA-MB-231 = tested on: MDA-MB-231
MDA-N = tested on: MDA-N
NCI-H460 = tested on: NCI-H460
RXF 393 = tested on: RXF 393
SK-MEL-28 = tested on: SK-MEL-28
SK-MEL-5 = tested on: SK-MEL-5
SNB-19 = tested on: SNB-19
T47D = tested on: T47D
SNB-75 = tested on: SNB-75
U-251 = tested on: U-251

Compound	GI50 (BT-549)	GI50 (CAKI-1)	GI50 (EKVX)	GI50 (HCT-116)	GI50 (HCT-15) [µM]	GI50 (HL-60)	GI50 (HOP-62)	GI50 (IGROV-1)	GI50 (M14)	GI50 (MCF7)	GI50 (MDA-MB-231)	GI50 (MDA-N)	GI50 (NCI-H460)	GI50 (RXF 393)	GI50 (SK-MEL-28)	GI50 (SK-MEL-5)	GI50 (SNB-19)	GI50 (T47D)	GI50 (SNB-75)	GI50 (U-251)
Cc1cc(C(=C2C=CC(=N)C=C2)c2ccc(N)cc2)ccc1N [FUCHSIN, BASIC]	0.82 µM (active)	11.9 µM (inactive)	6.04 µM (inactive)	3.36 µM (inactive)	12	3.21 µM (inactive)	0.724 µM (active)	10.7 µM (inactive)	4.23 µM (inactive)	3.13 µM (inactive)	6.3 µM (inactive)	4.72 µM (inactive)	2.52 µM (inactive)	7.16 µM (inactive)	8.2 µM (inactive)	1.46 µM (inactive)	0.615 µM (active)	1.01 µM (active)	–	–
S=C(NCCc1ccccn1)c1nc[nH]c1C(=S)NCCc1ccccn1	42.3 µM (inactive)	57.1 µM (inactive)	83.8 µM (inactive)	34 µM (inactive)	34.6	–	37.1 µM (inactive)	34.9 µM (inactive)	31.9 µM (inactive)	36.1 µM (inactive)	> 100 µM (inactive)	41.7 µM (inactive)	24.1 µM (inactive)	23 µM (inactive)	52.4 µM (inactive)	31.7 µM (inactive)	60.3 µM (inactive)	23.5 µM (inactive)	27.5 µM (inactive)	45.5 µM (inactive)
CC(=O)C1=C(C)N2C(=NC3=C(CCc4ccccc43)C2c2cccc(Br)c2)S1 (configuration not stated)	> 100 µM (inactive)	–	11.4 µM (inactive)	30.8 µM (inactive)	74.8	25.8 µM (inactive)	> 100 µM (inactive)	48.2 µM (inactive)	> 100 µM (inactive)	> 100 µM (inactive)	> 100 µM (inactive)	> 100 µM (inactive)	–	> 100 µM (inactive)	> 100 µM (inactive)	41.3 µM (inactive)	> 100 µM (inactive)	> 100 µM (inactive)	> 100 µM (inactive)	> 100 µM (inactive)
Cn1c2c(c3ccccc3c1=O)C(=O)c1ccccc1-2	50.9 µM (inactive)	> 100 µM (inactive)	20.6 µM (inactive)	15.5 µM (inactive)	9.79	6.93 µM (inactive)	18.9 µM (inactive)	> 100 µM (inactive)	> 100 µM (inactive)	72.9 µM (inactive)	43.4 µM (inactive)	> 100 µM (inactive)	–	–	> 100 µM (inactive)	29.9 µM (inactive)	44.2 µM (inactive)	> 100 µM (inactive)	77.6 µM (inactive)	35.3 µM (inactive)
Fc1ccc(OCc2ccc3nc(-c4ccccc4)c(Cl)nc3c2)cc1	31.1 µM (inactive)	22.1 µM (inactive)	39.6 µM (inactive)	31.6 µM (inactive)	> 100	33.3 µM (inactive)	16.3 µM (inactive)	25.1 µM (inactive)	67.8 µM (inactive)	53.1 µM (inactive)	20 µM (inactive)	72.4 µM (inactive)	30.1 µM (inactive)	–	69.3 µM (inactive)	17 µM (inactive)	> 10 µM (inactive)	31.6 µM (inactive)	16.7 µM (inactive)	16.8 µM (inactive)
O=C1c2c(ccc3c2CCC3)CC1Cc1ccc2c(c1)CCC2 (configuration not stated)	51.6 µM (inactive)	–	28.1 µM (inactive)	6.55 µM (inactive)	11	4.69 µM (inactive)	28.1 µM (inactive)	28.6 µM (inactive)	32.1 µM (inactive)	22.6 µM (inactive)	10.3 µM (inactive)	30.8 µM (inactive)	33.8 µM (inactive)	25.7 µM (inactive)	51.8 µM (inactive)	12.5 µM (inactive)	48.5 µM (inactive)	3.05 µM (inactive)	7.38 µM (inactive)	24.2 µM (inactive)
CC1NC(/C(=C/c2ccccc2O)NC(=O)c2ccccc2)OC1=O (configuration not stated)	> 50 µM (inactive)	> 50 µM (inactive)	30.4 µM (inactive)	> 50 µM (inactive)	34.1	23.3 µM (inactive)	16.1 µM (inactive)	14 µM (inactive)	> 50 µM (inactive)	1.47 µM (inactive)	> 50 µM (inactive)	4.05 µM (inactive)	–	–	> 50 µM (inactive)	39.7 µM (inactive)	> 50 µM (inactive)	27.7 µM (inactive)	13.9 µM (inactive)	> 50 µM (inactive)
N#CC12COC3(CCCCC3C1(C#N)C#N)OC2=N (configuration not stated)	15.4 µM (inactive)	3.59 µM (inactive)	18.5 µM (inactive)	12.6 µM (inactive)	–	2.91 µM (inactive)	–	14.6 µM (inactive)	10.6 µM (inactive)	11.7 µM (inactive)	15.2 µM (inactive)	12.9 µM (inactive)	16 µM (inactive)	13.1 µM (inactive)	14.6 µM (inactive)	11.4 µM (inactive)	17.8 µM (inactive)	11 µM (inactive)	14 µM (inactive)	8.87 µM (inactive)
